# Source: the PolyMetriX glass transition set
# Where a name gives a salt, the structure may show the parent alone. ± gives the standard deviation of the reports.
row,SMILES,glass transition temperature [°C]
1,*CC(*)C(=O)OCCOCC(F)(F)C(F)(F)C(F)(F)F (repeat unit),-45.00
2,*OC(=O)c1ccc(C(=O)OC2COC3C(*)COC23)o1 (repeat unit),192.50
3,*Oc1ccc(C(C)(C)c2ccc(OC(=O)OCCN(CCOC(*)=O)c3ccccc3)cc2)cc1 (repeat unit),70.00
4,*CC(*)C(=O)OCF (repeat unit),15.00
5,*CCCCCCCCCCC(c1ccc(O)cc1)C(*)c1ccc(O)cc1C (repeat unit),-4.00
6,*C(=O)c1ccc2c(c1)C(=O)N(c1cccc(C(O)c3cccc(N4C(=O)c5ccc(*)cc5C4=O)c3)c1)C2=O (repeat unit),292.00
7,*NC(CCC(=O)OCc1ccccc1)C(*)=O (repeat unit),17.00
8,*c1ccc(-c2nc(-c3cccc(-c4nnc(-c5ccccc5)c(*)n4)n3)nnc2-c2ccccc2)cc1 (repeat unit),260.00
9,*c1ccc(-c2ccc(-c3nc4ccc(Oc5ccc6nc(*)c(-c7ccccc7)c(-c7ccccc7)c6c5)cc4c(-c4ccccc4)c3-c3ccccc3)cc2)cc1 (repeat unit),351.00
10,*c1ccc(C2(c3ccc(-c4cc(-c5ccccc5)c5cc(C6(c7ccc8nc(*)cc(-c9ccccc9)c8c7)c7ccccc7-c7ccccc76)ccc5n4)cc3)c3ccccc3-c3ccccc32)cc1 (repeat unit),390.00
11,*NC1CCC(CC(C)(C)NC(=O)CCCCC(*)=O)CC1 (repeat unit),80.00
12,*c1ccc(Oc2ccc(-c3nc4ccc(Oc5ccc(N6C(=O)c7ccc(C(c8ccc9c(c8)C(=O)N(c8ccc(Oc%10ccc%11nc(*)c(-c%12ccccc%12)nc%11c%10)cc8)C9=O)(C(F)(F)F)C(F)(F)F)cc7C6=O)cc5)cc4nc3-c3ccccc3)cc2)cc1 (repeat unit),267.00
13,*Oc1ccc(C(c2ccccc2)c2ccc(OC(*)=O)cc2)cc1 (repeat unit),170.00
14,*c1cccc(-c2nc3ccc(-c4ccc5nc(*)sc5c4)cc3s2)c1 (repeat unit),495.00
15,*c1ccc(Oc2ccc(Sc3ccc(Oc4ccc(-c5cccc(*)n5)cc4C(F)(F)F)cc3)cc2)c(C(F)(F)F)c1 (repeat unit),144.50
16,*CC(*)(C)C(=O)OCCCCCCCCCCOc1ccc(OC(=O)c2ccc(-c3ccc(OC)cc3)cc2)cc1 (repeat unit),57.00
17,*CC(*)(C)C(=O)OCCCCCCOc1ccc(/C=N/c2ccc(C#N)cc2)cc1 (repeat unit),35.00
18,*CC(C)C(=O)O* (repeat unit),-25.00
19,*c1cccc(Oc2ccc(P(=O)(c3ccccc3)c3ccccc3)c(Oc3cccc(N4C(=O)c5ccc(Oc6ccc7c(c6)C(=O)N(*)C7=O)cc5C4=O)c3)c2)c1 (repeat unit),212.00
20,*Oc1ccc(CC(NC(=O)Cc2ccc(OC(=O)CCCCC(*)=O)cc2)C(=O)OCCCCCCCC)cc1 (repeat unit),28.00
21,*Oc1ccc(C(=O)Nc2ccc(Br)cc2-c2ccc(NC(=O)c3ccc(*)cc3)cc2)cc1 (repeat unit),249.00
22,*Oc1ccc(C2(c3ccc(OC(*)=O)cc3)c3ccccc3-c3ccccc32)cc1 (repeat unit),355.00
23,*CC(*)CCCCCCCCCCCCCCCC (repeat unit),55.00

row,SMILES,glass transition temperature [°C]
1,*c1ccc(Oc2ccc(-n3c(=O)c4c(Oc5ccc(OCCCCCCCCCCCC)cc5)c5c(=O)n(*)c(=O)c5c(Oc5ccc(OCCCCCCCCCCCC)cc5)c4c3=O)cc2)cc1 (repeat unit),218.00
2,*C(=O)c1ccc2c(c1)C(=O)N(c1ccc(Sc3ccc(N4C(=O)c5ccc(*)cc5C4=O)cc3)cc1)C2=O (repeat unit),276.00
3,*CC(*)(C)C(=O)OCCCCCCCCOc1ccc(C(=O)Oc2ccc(C(=O)/C=C/c3c(C)c4ccccc4n3C)cc2)cc1 (repeat unit),75.00
4,*C(=O)c1ccc2c(c1)C(=O)N(c1c(C)cc(C(c3cccc(C(F)(F)F)c3)c3cc(C)c(N4C(=O)c5ccc(*)cc5C4=O)c(C)c3)cc1C)C2=O (repeat unit),285.00
5,*CC(*)OC(=O)C(C)(C)CC(C)(C)C (repeat unit),55.00
6,*CCC[Si](*)(C[Si](C)(C)c1ccccc1)C[Si](C)(C)c1ccccc1 (repeat unit),-36.00
7,*Oc1ccc(C(=O)Nc2cc(SCCC#N)c(NC(=O)c3ccc(*)cc3)cc2SCCC#N)cc1 (repeat unit),158.00
8,*CC(*)c1cc(Br)ccc1OCCCCC (repeat unit),49.00
9,*CC(OO*)c1ccc(Br)cc1 (repeat unit),9.60
10,*Oc1ccc(C2(c3ccc(OC(*)=O)cc3C)CC3CC2C2C4CCC(C4)C32)cc1C (repeat unit),232.00
11,*C(=O)c1ccc2nc(-c3ccc(-c4cnc5cc(*)ccc5n4)cc3)cnc2c1 (repeat unit),318.00
12,*CC(*)c1ccc(C)cc1 (repeat unit) [Poly(p-methyl styrene) ],101 ± 1.6
13,*c1c(C)cc(C)c(N2C(=O)c3ccc(-c4ccc5c(c4)C(=O)N(*)C5=O)cc3C2=O)c1C (repeat unit),385.00
14,*c1ccc2c(c1)C(=O)N(c1ccc(C(=O)Nc3ccc(Oc4ccc(-c5ccc(Oc6ccc(NC(=O)c7ccc(N8C(=O)c9ccc(C(*)(C(F)(F)F)C(F)(F)F)cc9C8=O)cc7)cc6)cc5)cc4)cc3)cc1)C2=O (repeat unit),296.00
15,*CCN(*)C(=O)CCCCCC (repeat unit),10.00
16,*c1ccc2c(c1)Sc1cc(-c3sc4cc(*)sc4c3CCCCC)ccc1N2CCCCCCCCCC (repeat unit),131.00
17,*Nc1ccc(C(c2ccc(NC(=O)c3cc(C(*)=O)cc(C(C)(C)C)c3)cc2)(C(F)(F)F)C(F)(F)F)cc1 (repeat unit),284.10
18,*c1ccc(Oc2ccc(N3C(=O)c4ccc(-c5cccc6c5C(=O)N(*)C6=O)cc4C3=O)cc2)cc1 (repeat unit),320.00
19,*SC1CCCCC1* (repeat unit),-43.00
20,*CCCCCCCCCCSS* (repeat unit),-65.00
21,*CC(C)(CC)CO* (repeat unit),-47.00
22,*CCC(c1ccccc1)[Si](*)(C)C (repeat unit),27.00
23,*Oc1ccc(Sc2ccc(OC(=O)OC3C(C)(C)C(OC(*)=O)C3(C)C)cc2)cc1 (repeat unit),107.00

row,SMILES,glass transition temperature [°C]
1,*C(=O)OCCCCCCCCCOC(=O)c1ccc(NC(=O)c2ccc(N3C(=O)c4ccc(*)cc4C3=O)cc2)cc1 (repeat unit),100.00
2,*CC(*)(C)C(=O)OCc1ccc(OCCOCC)c(OCCOCC)c1 (repeat unit),-2.00
3,*CC(*)OCCOCCOCCOC (repeat unit),-76.00
4,*Oc1c(C)cc(C2(c3cc(C)c(Oc4ccc(C(=O)c5cccc(C(=O)c6ccc(*)cc6)c5)cc4)c(C)c3)c3ccccc3-c3ccccc32)cc1C (repeat unit),229.00
5,*CCCCCCCCCCN1C(=O)c2ccc(C(c3ccc4c(c3)C(=O)N(*)C4=O)(C(F)(F)F)C(F)(F)F)cc2C1=O (repeat unit),123.00
6,*CC(*)OC(=O)C(F)(F)F (repeat unit) [Poly(vinyl trifluoroacetate) ],46 ± 5.6
7,*CCCCCCCCCCOc1ccc(/C=C/c2ccc(OCCCCCCCCCCOP(=O)(O*)OCCCCCCCCCCOc3ccc(/N=N/c4ccc(-c5ccccc5)cc4)cc3)cc2)cc1 (repeat unit),50.00
8,*Oc1cccc(Oc2ccc(NC(=O)c3ccc(Oc4cccc(Oc5ccc(C(=O)Nc6ccc(*)cc6)cc5)c4)cc3)cc2)c1 (repeat unit),176.50
9,*CCCCCCNC(=O)c1ccc(C(=O)N*)c(Oc2ccc(-c3ccccc3)cc2)c1 (repeat unit),112.00
10,*CC(*)(C)C(=O)OCCCCCCCCCCOc1ccc(C(=O)Oc2ccc(C(=O)/C=C/c3c(C)c4ccccc4n3CCCC)cc2)cc1 (repeat unit),57.00
11,*c1ccc(-c2nc3cc(Oc4ccc(NC(=O)CN5C(=O)c6ccc(C(c7ccc8c(c7)C(=O)N(CC(=O)Nc7ccc(Oc9ccc%10nc(-c%11ccccc%11)c(*)nc%10c9)cc7)C8=O)(C(F)(F)F)C(F)(F)F)cc6C5=O)cc4)ccc3nc2-c2ccccc2)cc1 (repeat unit),280.00
12,*Oc1ccc(CC(NC(=O)CCc2ccc(OC(=O)COCCOCC(*)=O)cc2)C(=O)OCCCCCCCCCCCC)cc1 (repeat unit),17.00
13,*CC(*)SCC (repeat unit),-7.00
14,*c1ccc(OCCCCCCCCCCCOC(=O)c2ccc(C(=O)OCCCCCCCCCCCOc3cccc(-c4nnc(*)s4)c3)cc2)cc1 (repeat unit),35.00
15,*Oc1ccc(C2(c3ccc(OC(*)=O)c(Cl)c3)CC3CCC2C3)cc1Cl (repeat unit),200.00
16,*OC(*)C (repeat unit),-19.50
17,*CCCCCOC(=O)Nc1ccc(C)c(NC(=O)O*)c1 (repeat unit),52.00
18,*Oc1cccc2ccc(Oc3ccc(NC(=O)c4ccc(Oc5ccc(C(=O)Nc6ccc(*)cc6)cc5)cc4)cc3)cc12 (repeat unit),236.00
19,*CC(*)OCCOc1ccc(C=C(C#N)C#N)cc1 (repeat unit),38.00
20,*CC(*)(C)C(=O)OCCCCCCCCCCOc1ccc(C#Cc2cc(OC)c(/C=C/c3ccncc3)cc2OC)cc1 (repeat unit),87.10
21,*Oc1ccc(S(=O)(=O)c2ccc(Oc3ccc(C(=O)c4cc(C(=O)c5ccc(*)cc5)cc(C(C)(C)C)c4)cc3)cc2)cc1 (repeat unit),198.00
22,*C(F)(F)C(*)(F)Cl (repeat unit) [Poly(chlorotrifluoroethylene)],69.47 ± 25
